Results taken from patent US8822449B2, “Substituted aminoindanes and analogs thereof, and the pharmaceutical use thereof” (Sanofi, priority 2008, dated 2014).
pIC50: −log10 of the molar value.

Target: T1, sodium-proton exchanger of subtype 3 (NHE3) (Homo sapiens, UniProt P48764)
T1 construct: expressed in transfected cells
T1 sequence (P48764 26-834): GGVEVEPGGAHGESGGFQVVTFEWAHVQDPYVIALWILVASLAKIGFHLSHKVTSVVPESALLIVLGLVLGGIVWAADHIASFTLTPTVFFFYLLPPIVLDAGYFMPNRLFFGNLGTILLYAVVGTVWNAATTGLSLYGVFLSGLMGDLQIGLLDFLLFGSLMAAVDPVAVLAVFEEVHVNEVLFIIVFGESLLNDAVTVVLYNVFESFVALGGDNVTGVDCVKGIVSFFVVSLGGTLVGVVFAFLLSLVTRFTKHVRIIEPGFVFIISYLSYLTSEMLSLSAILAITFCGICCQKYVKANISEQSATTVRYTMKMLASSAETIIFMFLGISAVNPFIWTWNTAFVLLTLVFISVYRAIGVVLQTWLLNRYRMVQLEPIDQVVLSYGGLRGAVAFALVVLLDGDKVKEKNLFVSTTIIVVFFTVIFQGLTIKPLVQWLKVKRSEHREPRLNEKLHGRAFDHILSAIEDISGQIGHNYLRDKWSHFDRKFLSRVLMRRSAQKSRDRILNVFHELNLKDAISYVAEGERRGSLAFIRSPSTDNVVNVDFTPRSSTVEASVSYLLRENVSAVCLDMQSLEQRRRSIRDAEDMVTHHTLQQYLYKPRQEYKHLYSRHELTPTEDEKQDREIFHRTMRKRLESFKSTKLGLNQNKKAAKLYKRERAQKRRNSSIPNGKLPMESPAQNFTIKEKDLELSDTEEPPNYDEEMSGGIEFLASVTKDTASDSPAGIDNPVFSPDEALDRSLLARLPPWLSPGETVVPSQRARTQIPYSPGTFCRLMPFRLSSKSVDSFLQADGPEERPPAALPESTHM
Assay: Recovery of intracellular pH (pHi) after acidification in LAP1 cells stably expressing NHE3 (BCECF fluorescence, FLIPR)
Format: cell-based
Conditions: Activity range (inhibitory effect on NHE3), LAP1 cells stably expressing NHE3; pH recovery after acidification; range 1 is % inhibition at 10 μM

| Structure (SMILES) | pIC50 |
| --- | --- |
| CN(C)S(=O)(=O)c1ccc(O[C@H]2c3ccccc3C[C@@H]2N2CCCC2)c(Cl)c1 (racemic) [Example 447, 3-chloro-N,N-dimethyl-4-(rac-trans-(1,2)-2-pyrrolidin-1-ylindan-1-yloxy)benzenesulfonamide] | > 6.00 |

Same assay, conditions: LAP1 cells stably expressing NHE3; pH recovery after acidification; range 1 is % inhibition at 10 μM; read-out: Activity range (inhibitory effect on NHE3)

| Structure (SMILES) | pIC50 | inhibition at 10 µM [%] |
| --- | --- | --- |
| NC1CCN([C@@H]2Cc3ccccc3[C@H]2Oc2ccc(S(N)(=O)=O)c(Cl)c2Cl)C1 (mixture of isomers) [Example 542, 4-[rac-trans-(1,2)-2-(3-aminopyrrolidin-1-yl)indan-1-yloxy]-2,3-dichlorobenzenesulfonamide] | > 6.00 | – |
| N[C@H]1CCCN([C@H]2CCc3ccccc3[C@@H]2Oc2ccc(Cl)cc2)C1 (racemic) [Example 175, (S)-1-[rac-trans-(1,2)-1-(4-chlorophenoxy)-1,2,3,4-tetrahydronaphthalen-2-yl]piperidin-3-ylamine] | – | 20 to 50 |
| N[C@H]1CCCN([C@H]2CCc3ccccc3[C@@H]2Oc2ccc3oc(=O)sc3c2)C1 (racemic) [Example 580, 5-[rac-trans-(1,2)-2-((S)-3-aminopiperidin-1-yl)-1,2,3,4-tetrahydronaphthalen-1-yloxy]benzo[1,3]oxathiol-2-one] | – | 20 to 50 |
| Cc1cc2c(O[C@H]3c4ccccc4CC[C@@H]3N3CCOCC3)cccc2[nH]1 (racemic) [Example 399, 2-methyl-4-(rac-trans-(1,2)-2-morpholin-4-yl-1,2,3,4-tetrahydronaphthalen-1-yloxy)-1H-indole] | – | 20 to 50 |
| O=C(O)c1ccc(O[C@H]2c3ccccc3C[C@@H]2CN2CCCC2)cc1Cl (racemic) [Example 390, 2-chloro-4-(2-pyrrolidin-1-ylmethylindan-1-yloxy)benzoic acid] | – | 20 to 50 |
| CS(=O)(=O)c1ccc(OC2c3ccccc3CC2N2CCC[C@@H](N)C2)c(Cl)c1 (mixture of isomers) [Example 37, (R)-1-[rac-trans-(1,2)-1-(2-chloro-4-methanesulfonylphenoxy)indan-2-yl]piperidin-3-ylamine] | > 6.00 | – |
| N#CCc1cccc(O[C@H]2c3ccccc3CC[C@@H]2N2CCC[C@@H](N)C2)c1 (racemic) [Example 230, {3-[rac-trans-(1,2)-2-((R)-3-aminopiperidin-1-yl)-1,2,3,4-tetrahydronaphthalen-1-yloxy]phenyl}acetonitrile] | – | 20 to 50 |
| CC(=O)Nc1cccc(O[C@@H]2c3cc(Cl)cc(F)c3C[C@H]2N2CCC[C@@H](N)C2)c1 (racemic) [Example 678, N-{3-[rac-trans-(1,2)-2-((R)-3-aminopiperidin-1-yl)-6-chloro-4-fluoroindan-1-yloxy]phenyl}acetamide] | > 6.00 | – |
| N[C@@H]1CCCN([C@H]2CCc3ccccc3[C@@H]2Oc2ccccc2OC(F)(F)F)C1 (racemic) [Example 50, (R)-1-[rac-trans-(1,2)-1-(2-trifluoromethoxyphenoxy)-1,2,3,4-tetrahydronaphthalen-2-yl]piperidin-3-ylamine] | – | 20 to 50 |
| O=C1CCCN1c1ccc(Cl)c(O[C@H]2c3cc(Cl)cc(Cl)c3C[C@@H]2N2CC[C@@H](O)C2)c1 [Example 336, 1-{4-chloro-3-[(1S,2S)-4,6-dichloro-2-((R)-3-hydroxypyrrolidin-1-yl)indan-1-yloxy]phenyl}pyrrolidin-2-one] | > 6.00 | – |
| CS(=O)(=O)c1ccc(O[C@@H]2c3ccccc3C[C@H]2NC2CCC2)cc1 (racemic) [Example 708, Cyclobutyl-[rac-trans-(1,2)-1-(4-methanesulfonyl-phenoxy)-indan-2-yl]-amine] | 5.00 to 6.00 | – |
| NC1CCN([C@@H]2Cc3ccccc3[C@H]2Oc2ccc(Br)cc2-c2cc[nH]n2)CC1 (racemic) [Example 343, 1-{rac-trans-(1,2)-1-[4-bromo-2-(1H-pyrazol-3-yl)phenoxy]indan-2-yl}piperidin-4-ylamine] | 5.00 to 6.00 | – |
| Cn1ccn(-c2ccc(O[C@H]3c4cc(Cl)cc(Cl)c4C[C@@H]3N3CC[C@@H](O)C3)c(F)c2)c1=O [Example 329, 1-{4-[trans-(1S,2S)-4,6-dichloro-2-((R)-3-hydroxypyrrolidin-1-yl)indan-1-yloxy]-3-fluorophenyl}-3-methyl-1,3-dihydroimidazol-2-one] | > 6.00 | – |
| N[C@@H]1CCCN([C@H]2CCc3ccccc3[C@@H]2Oc2ccc(F)cc2F)C1 (racemic) [Example 32, (R)-1-[rac-trans-(1,2)-1-(2,4-difluorophenoxy)-1,2,3,4-tetrahydronaphthalen-2-yl]piperidin-3-ylamine] | – | 20 to 50 |
| Nc1ccc2c(O[C@H]3c4ccccc4CC[C@@H]3N3CCOCC3)cccc2c1 (racemic) [Example 569, 5-(rac-trans-(1,2)-2-morpholin-4-yl-1,2,3,4-tetrahydronaphthalen-1-yloxy)naphthalen-2-ylamine] | – | 20 to 50 |

Now from value to compound:

| pIC50 | inhibition at 10 µM [%] | Structure (SMILES) |
| --- | --- | --- |
| > 6.00 | – | CS(=O)(=O)c1ccc(O[C@H]2c3cc(Cl)cc(Cl)c3C[C@@H]2N2CCC[C@@H](NCC#N)C2)cc1 [Example 225, {(R)-1-[trans-(1S,2S)-4,6-dichloro-1-(4-methanesulfonylphenoxy)indan-2-yl]piperidin-3-ylamino}acetonitrile] |
| 5.00 to 6.00 | – | NS(=O)(=O)c1ccc(O[C@H]2c3c(Cl)cccc3C[C@@H]2N2CCCC2)cc1 (racemic) [Example 476, 4-(rac-trans-(1,2)-7-chloro-2-pyrrolidin-1-ylindan-1-yloxy)benzenesulfonamide] |
| 5.00 to 6.00 | – | CS(=O)(=O)c1ccc(O[C@H]2c3cc(Cl)cc(Cl)c3C[C@@H]2N2CC[C@@H](CO)C2)cc1 [Example 227, {(R)-1-[trans-(1S,2S)-4,6-dichloro-1-(4-methanesulfonylphenoxy)indan-2-yl]pyrrolidin-3-yl}methanol] |
| – | 20 to 50 | Cc1nnc(C)n1-c1ccc(O[C@H]2c3cc(Cl)c(Cl)cc3C[C@@H]2N2CCCC2)cc1 (racemic) [Example 498, 4-[4-(rac-trans-(1,2)-5,6-dichloro-2-pyrrolidin-1-ylindan-1-yloxy)phenyl]-3,5-dimethyl-4H-[1,2,4]triazole] |
| – | 20 to 50 | CN(C)[C@H]1Cc2c(Cl)cc(Cl)cc2[C@@H]1Oc1ccc(-n2ccnc2)cc1 (racemic) [Example 216, [rac-trans-(1,2)-4,6-dichloro-1-(4-imidazol-1-ylphenoxy)indan-2-yl]dimethylamine] |
| 5.00 to 6.00 | – | CC(=O)Nc1cccc(O[C@H]2c3cc(Cl)cc(Cl)c3C[C@@H]2N2CCCC2)c1 (racemic) [Example 648, N-[3-(rac-trans-(1,2)-4,6-dichloro-2-pyrrolidin-1-ylindan-1-yloxy)phenyl]acetamide] |
| 5.00 to 6.00 | – | Cc1cccc2c1C[C@H](N1CCCC1)[C@H]2Oc1ccc(S(N)(=O)=O)cc1 (racemic) [Example 472, 4-(rac-trans-(1,2)-4-methyl-2-pyrrolidin-1-ylindan-1-yloxy)benzenesulfonamide] |
| – | 20 to 50 | CC(=O)Nc1cccc(OC2c3ccccc3CC2N2CC[C@@H](N3CCCC3)C2)c1 (mixture of isomers) [Example 670, N-[rac-trans-(1,2)-3-((R)-2-[1,3′]bipyrrolidinyl-1′-ylindan-] |
| > 6.00 | – | O=c1[nH]ccn1-c1cccc(O[C@@H]2c3ccccc3C[C@H]2N2CCCC2)c1 (racemic) [Example 254, 1-[3-(rac-trans-(1,2)-2-pyrrolidin-1-ylindan-1-yloxy)phenyl]-1,3-dihydroimidazol-2-one] |
